The test system of this test is HepG2 TRIB1 mRNA expression, RT-qPCR, 6 h. Kind of test: TRIB1 mRNA induction under cholesterol depletion, late-stage follow-up, mechanism study for Trib1 inducer project, cell-based, HepG2, RT-PCR, cherry-pick (AID 1053152). Conditions: active compounds read high.

Structures are written as SMILES.

On to `CN1C(=O)c2cc(NC(=O)c3ccc(C(F)(F)F)cc3)ccc2OC[C@@H]2O[C@H](CC(=O)NC3Cc4ccccc4C3)CC[C@@H]21`, for which the fold induction (commonly the signal under treatment as a multiple of the control signal) is 2.5.
